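Test compounds were applied to cells in 96-well plates for 48 hours at 5 doses. TGI: total growth inhibition.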
Legend:
Assay in all cases: DTP human tumour cell line panel, 48 h
786-0 renal = system: 786-0 renal
A498 renal = system: A498 renal
A549 NSCLC = system: A549 NSCLC
ACHN renal = system: ACHN renal
BT-549 breast = system: BT-549 breast
CAKI-1 renal = system: CAKI-1 renal
CCRF-CEM leukemia = system: CCRF-CEM leukemia
COLO 205 colon = system: COLO 205 colon
DU-145 prostate = system: DU-145 prostate
EKVX NSCLC = system: EKVX NSCLC
HCC-2998 colon = system: HCC-2998 colon
HCT-116 colon = system: HCT-116 colon
HCT-15 colon = system: HCT-15 colon
HL-60(TB) leukemia = system: HL-60(TB) leukemia
HOP-62 NSCLC = system: HOP-62 NSCLC
HOP-92 NSCLC = system: HOP-92 NSCLC
HS 578T breast = system: HS 578T breast
HT29 colon = system: HT29 colon
IGROV1 ovarian = system: IGROV1 ovarian
K-562 leukemia = system: K-562 leukemia
KM12 colon = system: KM12 colon
LOX IMVI melanoma = system: LOX IMVI melanoma
MALME-3M melanoma = system: MALME-3M melanoma
MCF7 breast = system: MCF7 breast
MDA-MB-231 breast = system: MDA-MB-231 breast
MDA-MB-435 = system: MDA-MB-435
MDA-N = system: MDA-N
MOLT-4 leukemia = system: MOLT-4 leukemia
NCI-H226 lung = system: NCI-H226 lung
NCI-H23 lung = system: NCI-H23 lung
NCI-H460 lung = system: NCI-H460 lung
NCI-H522 lung = system: NCI-H522 lung
NCI/ADR-RES ovarian = system: NCI/ADR-RES ovarian
OVCAR-3 ovarian = system: OVCAR-3 ovarian
OVCAR-4 ovarian = system: OVCAR-4 ovarian
OVCAR-5 ovarian = system: OVCAR-5 ovarian
OVCAR-8 ovarian = system: OVCAR-8 ovarian
PC-3 prostate = system: PC-3 prostate
RPMI-8226 leukemia = system: RPMI-8226 leukemia
RXF 393 renal = system: RXF 393 renal
SF-295 CNS = system: SF-295 CNS
SF-539 CNS = system: SF-539 CNS
SK-MEL-2 melanoma = system: SK-MEL-2 melanoma
SK-MEL-28 melanoma = system: SK-MEL-28 melanoma
SK-MEL-5 melanoma = system: SK-MEL-5 melanoma
SN12C renal = system: SN12C renal
SNB-75 CNS = system: SNB-75 CNS
SR leukemia = system: SR leukemia
SW-620 colon = system: SW-620 colon
T-47D breast = system: T-47D breast
U251 CNS = system: U251 CNS
UACC-257 melanoma = system: UACC-257 melanoma
UACC-62 melanoma = system: UACC-62 melanoma
UO-31 renal = system: UO-31 renal
M14 melanoma = system: M14 melanoma
SF-268 CNS = system: SF-268 CNS
SK-OV-3 ovarian = system: SK-OV-3 ovarian
SNB-19 CNS = system: SNB-19 CNS
TK-10 renal = system: TK-10 renal

Nc1nccc(NCC2(CO)CC(OCc3ccccc3)C2)n1 (stereo not given)
TGI (786-0 renal): > 100 µM
TGI (A498 renal): > 100 µM
TGI (A549 NSCLC): > 100 µM
TGI (ACHN renal): > 100 µM
TGI (BT-549 breast): > 100 µM
TGI (CAKI-1 renal): > 100 µM
TGI (CCRF-CEM leukemia): > 100 µM
TGI (COLO 205 colon): > 100 µM
TGI (DU-145 prostate): > 100 µM
TGI (EKVX NSCLC): > 100 µM
TGI (HCC-2998 colon): > 100 µM
TGI (HCT-116 colon): > 100 µM
TGI (HCT-15 colon): > 100 µM
TGI (HL-60(TB) leukemia): > 100 µM
TGI (HOP-62 NSCLC): > 100 µM
TGI (HOP-92 NSCLC): > 100 µM
TGI (HS 578T breast): > 100 µM
TGI (HT29 colon): > 100 µM
TGI (IGROV1 ovarian): > 100 µM
TGI (K-562 leukemia): > 100 µM
TGI (KM12 colon): > 100 µM
TGI (LOX IMVI melanoma): > 100 µM
TGI (MALME-3M melanoma): > 100 µM
TGI (MCF7 breast): > 100 µM
TGI (MDA-MB-231 breast): > 100 µM
TGI (MDA-MB-435): > 100 µM
TGI (MDA-N): > 100 µM
TGI (MOLT-4 leukemia): > 100 µM
TGI (NCI-H226 lung): > 100 µM
TGI (NCI-H23 lung): > 100 µM
TGI (NCI-H460 lung): > 100 µM
TGI (NCI-H522 lung): > 100 µM
TGI (NCI/ADR-RES ovarian): > 100 µM
TGI (OVCAR-3 ovarian): > 100 µM
TGI (OVCAR-4 ovarian): > 100 µM
TGI (OVCAR-5 ovarian): > 100 µM
TGI (OVCAR-8 ovarian): > 100 µM
TGI (PC-3 prostate): > 100 µM
TGI (RPMI-8226 leukemia): > 100 µM
TGI (RXF 393 renal): > 100 µM
TGI (SF-295 CNS): > 100 µM
TGI (SF-539 CNS): > 100 µM
TGI (SK-MEL-2 melanoma): > 100 µM
TGI (SK-MEL-28 melanoma): > 100 µM
TGI (SK-MEL-5 melanoma): > 100 µM
TGI (SN12C renal): > 100 µM
TGI (SNB-75 CNS): > 100 µM
TGI (SR leukemia): > 100 µM
TGI (SW-620 colon): > 100 µM
TGI (T-47D breast): 36.2 µM
TGI (U251 CNS): > 100 µM
TGI (UACC-257 melanoma): > 100 µM
TGI (UACC-62 melanoma): > 100 µM
TGI (UO-31 renal): > 100 µM

CC12CC(=O)Nc3ccccc3N1C(c1ccccc1)=NO2 (stereo not given)
TGI (786-0 renal): > 100 µM
TGI (A498 renal): > 100 µM
TGI (A549 NSCLC): > 100 µM
TGI (ACHN renal): > 100 µM
TGI (BT-549 breast): > 100 µM
TGI (CAKI-1 renal): > 100 µM
TGI (CCRF-CEM leukemia): > 100 µM
TGI (COLO 205 colon): > 100 µM
TGI (DU-145 prostate): > 100 µM
TGI (EKVX NSCLC): > 100 µM
TGI (HCC-2998 colon): > 100 µM
TGI (HCT-116 colon): > 100 µM
TGI (HCT-15 colon): > 100 µM
TGI (HL-60(TB) leukemia): > 100 µM
TGI (HOP-62 NSCLC): > 100 µM
TGI (HOP-92 NSCLC): > 100 µM
TGI (HS 578T breast): > 100 µM
TGI (HT29 colon): > 100 µM
TGI (IGROV1 ovarian): > 100 µM
TGI (K-562 leukemia): > 100 µM
TGI (KM12 colon): > 100 µM
TGI (M14 melanoma): > 100 µM
TGI (MALME-3M melanoma): > 100 µM
TGI (MCF7 breast): > 100 µM
TGI (MDA-MB-231 breast): > 100 µM
TGI (MDA-MB-435): > 100 µM
TGI (MDA-N): > 100 µM
TGI (MOLT-4 leukemia): > 100 µM
TGI (NCI-H226 lung): > 100 µM
TGI (NCI-H23 lung): > 100 µM
TGI (NCI-H460 lung): > 100 µM
TGI (NCI-H522 lung): > 100 µM
TGI (NCI/ADR-RES ovarian): > 100 µM
TGI (OVCAR-3 ovarian): > 100 µM
TGI (OVCAR-4 ovarian): > 100 µM
TGI (OVCAR-5 ovarian): > 100 µM
TGI (OVCAR-8 ovarian): > 100 µM
TGI (PC-3 prostate): > 100 µM
TGI (RPMI-8226 leukemia): > 100 µM
TGI (RXF 393 renal): > 100 µM
TGI (SF-268 CNS): > 100 µM
TGI (SF-295 CNS): > 100 µM
TGI (SF-539 CNS): > 100 µM
TGI (SK-MEL-2 melanoma): > 100 µM
TGI (SK-MEL-5 melanoma): > 100 µM
TGI (SK-OV-3 ovarian): > 100 µM
TGI (SN12C renal): > 100 µM
TGI (SNB-19 CNS): > 100 µM
TGI (SNB-75 CNS): > 100 µM
TGI (SR leukemia): > 100 µM
TGI (SW-620 colon): > 100 µM
TGI (TK-10 renal): > 100 µM
TGI (U251 CNS): > 100 µM
TGI (UACC-257 melanoma): > 100 µM
TGI (UACC-62 melanoma): > 100 µM
TGI (UO-31 renal): > 100 µM

Source: PubChem BioAssay (NCI)
